Test results from patent US20040138109A1, “Potent inhibitor of HCV serine protease” (Boehringer Ingelheim Pharmaceuticals, Inc., priority 2002, published 2004).

Legend:
[1] = Oral bioavailability in animal species; type: in vivo; settings: various animal species
Description: (§1) A distinguishing feature of the Compound (1) inhibitor series is the presence of a C-terminal carboxylic acid functionality.

[2] = system: HCV; assay: Clinical study in patients with chronic HCV infection, viral load; type: in vivo, human; settings: HCV infected patients, oral formulation, within 48 hours after first administration, some patients
Description: (§2) In a first single rising dose trial in healthy male subjects the tolerability and pharmacokinetic parameters of Compound (1) were investigated. […] The degree of viral load reduction upon administration of Compound (1) was a significant and unexpected finding, with some patients even experiencing up to a 3 log reduction in viral load within 48 hours after the first administration of Compound (1).
The term “viral load” with respect to HCV in a mammal means the number of HCV mRNA genome copies per ml of serum present in the mammal. The viral load value can be measured, for example, by mRNA-PCR quantitation in blood samples using Cobas Amplicor HCV Monitor v 2.0 (Roche Diagnostics); Amplicor HCV v 2.0, Roche Diagnostics; HCV Transcription Mediated Amplification (TMA) assay, Bayer Diagnostics; HCV RNA Qualitative Testing (TMA) assay, Bayer Diagnostics; the HCV branched DNA (bDNA) assay version 3.0, Bayer Diagnostics; Versant HCV RNA 3.0 Assay (bDNA), Bayer Diagnostics, and Superquant assay, National Genetics Institute (Los Angeles, Calif.).
The degree of viral load reduction upon the administration of Compound (1) was a significant and unexpected finding, with some patients even experiencing up to a 3 log reduction in viral load within 48 hours after the first administration of Compound (1). […]

[3] = molecular target: NS3 serine protease of HCV genotype 1b (Hepatitis C virus genotype 1b, UniProt P26663); assay: Steady state velocity analysis with NS3 serine protease, HCV genotype 1b; type: biochemical; settings: non-covalent, competitive mode of inhibition, read-out: Inhibitor constant (Ki)
Sequence of NS3 serine protease of HCV genotype 1b (P26663 1027-1657): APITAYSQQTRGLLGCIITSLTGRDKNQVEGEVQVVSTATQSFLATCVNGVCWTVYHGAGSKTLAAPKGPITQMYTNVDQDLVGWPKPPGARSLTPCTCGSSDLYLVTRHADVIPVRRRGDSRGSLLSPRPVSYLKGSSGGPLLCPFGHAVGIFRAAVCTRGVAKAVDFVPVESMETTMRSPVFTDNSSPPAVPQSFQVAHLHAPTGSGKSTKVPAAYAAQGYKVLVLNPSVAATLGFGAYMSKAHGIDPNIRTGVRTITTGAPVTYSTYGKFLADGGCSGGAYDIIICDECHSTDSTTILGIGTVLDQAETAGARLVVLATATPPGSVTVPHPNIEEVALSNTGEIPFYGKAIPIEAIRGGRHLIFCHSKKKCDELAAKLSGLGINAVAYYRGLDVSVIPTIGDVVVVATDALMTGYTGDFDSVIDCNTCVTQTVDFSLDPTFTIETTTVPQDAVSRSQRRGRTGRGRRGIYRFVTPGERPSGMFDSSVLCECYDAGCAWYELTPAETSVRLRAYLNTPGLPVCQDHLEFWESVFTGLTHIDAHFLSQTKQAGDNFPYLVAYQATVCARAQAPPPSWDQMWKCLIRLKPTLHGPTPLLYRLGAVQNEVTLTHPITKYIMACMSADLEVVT
Sequence of NS3 serine protease of HCV genotype 1b (P26663 1658-1711): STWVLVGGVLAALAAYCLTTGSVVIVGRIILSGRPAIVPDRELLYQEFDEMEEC
Description: as §1

[4] = molecular target: NS3 serine protease of HCV genotype 1a (Hepatitis C virus genotype 1a, UniProt P27958); assay: Steady state velocity analysis with NS3 serine protease, HCV genotype 1a; type: biochemical; settings: non-covalent, competitive mode of inhibition, read-out: Inhibitor constant (Ki)
Sequence of NS3 serine protease of HCV genotype 1a (P27958 1027-1657): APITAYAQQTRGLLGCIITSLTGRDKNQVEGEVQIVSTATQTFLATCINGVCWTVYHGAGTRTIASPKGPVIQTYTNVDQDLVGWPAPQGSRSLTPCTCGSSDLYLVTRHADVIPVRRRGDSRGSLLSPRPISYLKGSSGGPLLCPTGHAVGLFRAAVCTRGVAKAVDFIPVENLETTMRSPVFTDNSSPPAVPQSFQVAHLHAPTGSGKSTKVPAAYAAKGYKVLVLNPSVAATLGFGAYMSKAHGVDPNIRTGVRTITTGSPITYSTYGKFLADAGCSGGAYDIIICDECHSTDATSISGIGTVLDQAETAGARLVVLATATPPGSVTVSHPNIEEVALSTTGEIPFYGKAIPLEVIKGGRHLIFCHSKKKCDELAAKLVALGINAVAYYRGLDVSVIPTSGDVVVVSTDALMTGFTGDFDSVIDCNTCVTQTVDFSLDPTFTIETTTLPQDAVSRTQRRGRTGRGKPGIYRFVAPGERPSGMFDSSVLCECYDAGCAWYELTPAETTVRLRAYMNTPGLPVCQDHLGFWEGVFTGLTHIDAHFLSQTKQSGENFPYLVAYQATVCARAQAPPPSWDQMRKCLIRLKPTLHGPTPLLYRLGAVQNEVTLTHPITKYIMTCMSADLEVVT
Sequence of NS3 serine protease of HCV genotype 1a (P27958 1658-1711): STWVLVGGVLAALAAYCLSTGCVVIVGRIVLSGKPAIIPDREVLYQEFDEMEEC
Description: as §1

[5] = system: NS3 protease-dependent polyprotein processing; assay: NS3 protease-dependent polyprotein processing in HCV replicon-containing cells; type: cell-based
Description: as §1

[6] = Single rising dose trial in healthy male subjects; type: in vivo, human
Description: as §2

[7] = Light sensitivity of the oral solution; type: physicochemical; settings: solution in PEG 400:Ethanol 80:20 w/w
Description: Keep away from direct sunlight and cover with aluminium foil whenever possible.

[8] = system: HCV RNA replication; assay: HCV RNA replication in the replicon cell model system; type: cell-based; settings: human cells
Description: as §1

COc1ccc2c(O[C@@H]3C[C@H]4C(=O)N[C@]5(C(=O)O)C[C@H]5/C=C\CCCCC[C@H](NC(=O)OC5CCCC5)C(=O)N4C3)cc(-c3csc(NC(C)C)n3)nc2c1 [Compound (1)]
Oral bioavailability [1]: orally bioavailable
Reduction in viral load [2]: ≤ 3 log
Ki [3]: 0.66 nM
Ki [4]: 0.3 nM
Ability to block NS3 protease-dependent polyprotein processing [5]: block NS3 protease-dependent polyprotein processing
Tolerability [6]: well tolerated up to 2000 mg
Light sensitivity [7]: light sensitive
Inhibition of HCV RNA replication [8]: low nanomolar inhibition
